{"source": "patent US20210260022A1", "about": "“SYNERGY FOR INCREASING ENERGY EXPENDITURE AND INSULIN SENSITIVITY” (The Board of Supervisors of Louisiana State University and …, priority 2018, published 2021)", "key": {"[1]": {"system": "human adipocytes", "test": "Acute agonist-stimulated lipolysis (glycerol release) in untreated and NRBC-treated adipocytes", "type": "cell-based", "settings": "4.5 hour agonist exposure", "protocol": "Acute agonist-stimulated glycerol release in untreated and NRBC-treated adipocytes. After 7d treatment with vehicle or NRBC, cells were exposed to receptor agonists dissolved in KRB with 1% BSA for 4.5 hours. Supernatants were removed for measurement of glycerol.\nOn the day of the acute lipolysis assay, cell cultures were rinsed with KRB to remove serum and exposed to the individual receptor agonists in KRB. Lipolysis was measured as glycerol released into the cell supernatant over 4.5 hour of agonist exposure. Non-hydrolyzable cAMP was also evaluated in each experiment as a positive control to measure the maximum capacity for PKA-stimulated lipolysis."}, "[2]": {"system": "human adipocytes", "test": "qRT-PCR in human adipocytes (hADSC) treated two days with naringenin and inhibitors", "type": "cell-based", "settings": "2d treatment", "protocol": "Human white adipocytes were treated for 2d with naringenin in the presence of inhibitors of metabolic pathways to determine the mechanism of action for stimulating fat oxidation and thermogenic energy expenditure.\nNaringenin increased UCP1 and CPT1β mRNA induction compared to control (p<0.001). PPARα and PPARγ inhibition reduced UCP1 and CPT1β mRNA expression (p<0.001). Each experiment was conducted with three biological replicates and four technical replicates.\nThe whole orange extract was dissolved in DMSO at 15 mM (based on 28% naringenin content) and added to cells at a dilution of 1:500 to achieve a final concentration of 30 μM. The inhibitors added to the naringenin-treated cells included: peroxisome proliferator-activated receptor alpha (PPARα) antagonist GW6471 and peroxisome proliferator-activated receptor gamma (PPARγ) antagonist GW9662 (Cayman Chemical, Ann Arbor, Mich.) at 10 μM concentration, protein kinase A (PKA) inhibitor H89 (Millipore Sigma, Burlington, Mass.) at 20 μM concentration, and protein kinase G (PKG) inhibitor […] (Biolog Life Science Institute, AXXORA, LLC, Farmingdale, N.Y.) at 50 μM concentration. GW6471 and GW9662 were dissolved in DMSO at 1000×, H89 was dissolved in PBS at 500×, and Rp-8-pCPT-cGMPS was dissolved in PBS at 100× prior to dilution in cell culture medium. Following a two-day treatment, the cells were harvested with Trizol reagent. RNeasy Mini Kit (Qiagen, Germantown, Md.) was used to isolate total RNA following manufacturer's protocol. The expression of UCP1, CPT1β, and GLUT4 was quantified with one-step reverse transcriptase PCR using the reverse PCR primer to prime cDNA synthesis as previously described.^6"}, "[3]": {"system": "human adipocytes", "test": "UCP1 mRNA in human adipocytes, naringenin combined with other botanical compounds", "type": "cell-based", "settings": "5 μM naringenin in combination", "protocol": "Human adipocytes were treated with 5 μM naringenin or with naringenin in combination with other botanical compounds to evaluate synergy in inducing UCP1 mRNA expression. A range of other botanical compounds such as […]"}, "[4]": {"system": "mice", "settings": "100 mg/kg injected daily; cited from earlier work"}, "[5]": {"system": "human adipocytes", "test": "mRNA expression (Taqman RT-PCR) in differentiated human adipocytes after 7 day treatment", "type": "cell-based", "settings": "for UCP1 and GLUT4 expression, carotenoid alone: 2 μM carotenoid; for UCP1 and GLUT4 expression, carotenoid alone / UCP1 and GLUT4 expression, carotenoid in combination with naringenin extract: seven days; for UCP1 and GLUT4 expression, carotenoid in combination with naringenin extract: 8 μM naringenin extract + 2 μM carotenoid; for gene expression, carotenoid in combination with NR: compared with BC + NR"}, "[6]": {"settings": "4 mg/day, six months, obese children; cited from earlier work"}, "[7]": {"system": "mice", "settings": "150 mg/kg/day dietary; cited from earlier work"}}}
{"molecule": "CC[C@H](C)[C@@H]1NC(=O)[C@H](CCCNC(=N)N)NC(=O)[C@H](CC(=O)O)NC(=O)[C@H](CCSC)NC(=O)[C@H](CCCNC(=N)N)NC(=O)CNC(=O)CNC(=O)[C@H](Cc2ccccc2)NC(=O)[C@@H](NC(=O)[C@H](CO)NC(=O)[C@H](CO)NC(=O)[C@H](CCCNC(=N)N)NC(=O)[C@H](CCCNC(=N)N)NC(=O)[C@H](CC(C)C)NC(=O)[C@@H](N)CO)CSSC[C@@H](C(=O)N[C@@H](CC(N)=O)C(=O)N[C@@H](CO)C(=O)N[C@@H](Cc2ccccc2)C(=O)N[C@@H](CCCNC(=N)N)C(=O)N[C@@H](Cc2ccc(O)cc2)C(=O)O)NC(=O)CNC(=O)[C@H](CC(C)C)NC(=O)CNC(=O)[C@H](CO)NC(=O)[C@H](CCC(N)=O)NC(=O)[C@H](C)NC(=O)CNC1=O", "note": "[ANP]", "values": [{"measurement": "lipolysis stimulated by the agonist (glycerol release)", "setting": "[1]", "value": "highest levels of lipolysis"}]}
{"molecule": "Nc1nc2c(nc(Sc3ccc(Cl)cc3)n2[C@@H]2O[C@@H]3CO[P@@](=O)(S)O[C@H]3[C@H]2O)c(=O)[nH]1", "note": "[Biolog C013, reference compound]", "values": [{"measurement": "Induction of UCP1 and CPT-1b by naringenin in the presence of the inhibitor", "setting": "[2]", "value": "unaffected"}]}
{"molecule": "Nc1ncnc2c1ncn2[C@@H]1O[C@@H]2COP(=O)(O)O[C@H]2[C@H]1O", "note": "[Cyclic AMP]", "values": [{"measurement": "lipolysis stimulated by the agonist (glycerol release)", "setting": "[1]", "value": "greater lipolysis activity than any individual receptor ligand"}]}
{"molecule": "CC12CCC(CC1)C(C)(C)O2", "note": "[Ecalyptol]", "values": [{"measurement": "synergy with naringenin in increasing UCP1 mRNA levels", "setting": "[3]", "value": "did not synergize"}]}
{"molecule": "CCC(=O)NC[C@H](Cc1ccc(OCCc2nc(-c3ccccc3)oc2C)cc1)N/C(C)=C\\C(=O)c1ccc(C(F)(F)F)cc1", "note": "[GW6471, reference compound]", "values": [{"measurement": "Induction of UCP1 and CPT-1b by naringenin in the presence of the inhibitor", "setting": "[2]", "value": "abolished"}]}
{"molecule": "O=C(Nc1ccccc1)c1cc([N+](=O)[O-])ccc1Cl", "note": "[GW9661, reference compound]", "values": [{"measurement": "Induction of UCP1 and CPT-1b by naringenin in the presence of the inhibitor", "setting": "[2]", "value": "abolished"}]}
{"molecule": "O=S(=O)(NCCNC/C=C/c1ccc(Br)cc1)c1cccc2cnccc12", "note": "[H89, reference compound]", "values": [{"measurement": "Induction of UCP1 and CPT-1b by naringenin in the presence of the inhibitor", "setting": "[2]", "value": "partially reduced"}]}
{"molecule": "CCCCCCCC/C=C\\CCCCCCCC(=O)NCCO", "note": "[OEA, oleoylethanolamide]", "values": [{"measurement": "synergy with naringenin in increasing UCP1 mRNA levels", "setting": "[3]", "value": "did not synergize"}]}
{"molecule": "CC1=C(/C=C/C(C)=C/C=C/C(C)=C/C(=O)O)C(C)(C)CCC1", "note": "[atRA, All-trans retinoic acid]", "values": [{"measurement": "body weight and adiposity", "setting": "[4]", "value": "reduction in body weight and adiposity"}]}
{"molecule": "CC1=C(/C=C/C(C)=C/C=C/C(C)=C/C=C/C=C(C)/C=C/C=C(C)/C=C/C2=C(C)CCCC2(C)C)C(C)(C)CCC1", "note": "[beta carotene, β-Carotene]", "values": [{"measurement": "UCP1 and GLUT4 expression, carotenoid alone", "setting": "[5]", "value": "no effect"}, {"measurement": "RNA expression of uncoupling protein-1, adipose tissue glyceride lipase and adiponectin", "setting": "[5]; beta carotene at 1 micromolar", "value": "increase RNA expression"}, {"measurement": "BMI z-score, subcutaneous and visceral adipose tissue, waist circumference", "setting": "[6]", "value": "reduction in BMI z-score, subcutaneous adipose tissue, visceral adipose tissue, waist circumference"}, {"measurement": "insulin sensitivity", "setting": "[6]", "value": "improved insulin sensitivity"}, {"measurement": "adiposity, food intake, bodyweight", "setting": "[7]", "value": "reduced adiposity without altering food intake or bodyweight"}]}
{"molecule": "CC(CCc1ccc(O)cc1)NCCc1ccc(O)c(O)c1", "note": "(stereo not shown) [dobutamine]", "values": [{"measurement": "lipolysis stimulated by the agonist (glycerol release)", "setting": "[1]", "value": "comparable to isoproterenol"}]}
{"molecule": "CC1=C[C@H](O)CC(C)(C)[C@H]1/C=C/C(C)=C/C=C/C(C)=C/C=C/C=C(C)/C=C/C=C(C)/C=C/C1=C(C)C[C@@H](O)CC1(C)C", "note": "[lutein, Lutein]", "values": [{"measurement": "UCP1 and GLUT4 expression, carotenoid alone", "setting": "[5]", "value": "no effect"}, {"measurement": "UCP1 and GLUT4 expression, carotenoid in combination with naringenin extract", "setting": "[5]", "value": "act synergistically"}, {"measurement": "gene expression, carotenoid in combination with NR", "setting": "[5]", "value": "synergistic effect"}]}
{"molecule": "CC(C)=CCC/C(C)=C/C=C/C(C)=C/C=C/C(C)=C/C=C/C=C(C)/C=C/C=C(C)/C=C/C=C(\\C)CCC=C(C)C", "note": "[lycopene, Lycopene]", "values": [{"measurement": "UCP1 and GLUT4 expression, carotenoid alone", "setting": "[5]", "value": "no effect"}, {"measurement": "UCP1 and GLUT4 expression, carotenoid in combination with naringenin extract", "setting": "[5]", "value": "act synergistically"}, {"measurement": "gene expression, carotenoid in combination with NR", "setting": "[5]", "value": "synergistic effect"}]}
{"molecule": "PTH: parathyroid hormone (1-34) (SVSEIQLMHNLGKHLNSMERVEWLRKKLQDVHNF; Parathyroid hormone; UniProt P01270 32-65, looked up, fragment)", "values": [{"measurement": "lipolysis stimulated by the agonist (glycerol release)", "setting": "[1]", "value": "highest levels of lipolysis"}]}
